Laboratory results published in PubChem BioAssay (NCI).
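Protocol summary: plate cells (96-well), add compound at 5 concentrations, incubate 48 h, interpolate endpoints linearly. Definition used: TGI = concentration required for complete inhibition of growth.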

Key:
Test in all cases: NCI tumour cell line growth inhibition, 48 h
[1] = test system: NCI-H226 lung
[2] = test system: XF 498 CNS
[3] = test system: U251 CNS
[4] = test system: M19-MEL melanoma
[5] = test system: A549 NSCLC
[6] = test system: HOP-92 NSCLC
[7] = test system: SK-MEL-5 melanoma
[8] = test system: M14 melanoma
[9] = test system: HCC-2998 colon
[10] = test system: RPMI-8226 leukemia
[11] = test system: SK-MEL-28 melanoma
[12] = test system: NCI-H522 lung
[13] = test system: A498 renal
[14] = test system: MALME-3M melanoma
[15] = test system: SF-539 CNS
[16] = test system: EKVX NSCLC
[17] = test system: NCI-H460 lung
[18] = test system: KM20L2 colon
[19] = test system: CCRF-CEM leukemia
[20] = test system: SK-MEL-2 melanoma
[21] = test system: SF-295 CNS
[22] = test system: K-562 leukemia
[23] = test system: HT29 colon
[24] = test system: 786-0 renal
[25] = test system: DLD-1 colon
[26] = test system: HCT-15 colon
[27] = test system: HL-60(TB) leukemia
[28] = test system: LOX IMVI melanoma
[29] = test system: IGROV1 ovarian
[30] = test system: CAKI-1 renal
[31] = test system: DMS 273 small cell lung
[32] = test system: ACHN renal
[33] = test system: SF-268 CNS
[34] = test system: SK-OV-3 ovarian
[35] = test system: RXF 393 renal
[36] = test system: OVCAR-5 ovarian
[37] = test system: HOP-62 NSCLC
[38] = test system: COLO 205 colon
[39] = test system: OVCAR-3 ovarian
[40] = test system: UACC-62 melanoma
[41] = test system: SR leukemia
[42] = test system: NCI-H23 lung
[43] = test system: LXFL 529 NSCLC
[44] = test system: DMS 114 small cell lung
[45] = test system: SNB-78 CNS
[46] = test system: KM12 colon
[47] = test system: SNB-19 CNS
[48] = test system: SW-620 colon
[49] = test system: HCT-116 colon
[50] = test system: TK-10 renal
[51] = test system: OVCAR-8 ovarian
[52] = test system: MOLT-4 leukemia
[53] = test system: SN12C renal
[54] = test system: MDA-MB-435
[55] = test system: MDA-MB-231 breast
[56] = test system: T-47D breast
[57] = test system: UO-31 renal
[58] = test system: MCF7 breast
[59] = test system: PC-3 prostate
[60] = test system: NCI/ADR-RES ovarian
[61] = test system: SNB-75 CNS
[62] = test system: MDA-N
[63] = test system: DU-145 prostate
[64] = test system: UACC-257 melanoma
[65] = test system: BT-549 breast
[66] = test system: HS 578T breast
[67] = test system: OVCAR-4 ovarian

COC(=O)n1c(C[P+](c2ccccc2)(c2ccccc2)c2ccccc2)cc2ccccc21
TGI [1]: 5.95 µM
TGI [2]: 6.09 µM
TGI [3]: 17.5 µM
TGI [4]: 13.1 µM
TGI [5]: 12.4 µM
TGI [6]: 3.34 µM
TGI [7]: 3.93 µM
TGI [8]: 7.37 µM
TGI [9]: 10.3 µM
TGI [10]: 14.7 µM
TGI [11]: 15.7 µM
TGI [12]: 6.34 µM
TGI [13]: 22.7 µM
TGI [14]: 17.1 µM
TGI [15]: 14.7 µM
TGI [16]: 11.1 µM
TGI [17]: 12.2 µM
TGI [18]: 10.7 µM
TGI [19]: 21.1 µM
TGI [20]: 4.97 µM
TGI [21]: 5.9 µM
TGI [22]: 16.2 µM
TGI [23]: 11.8 µM
TGI [24]: 12.8 µM
TGI [25]: 11.4 µM
TGI [26]: 34.2 µM
TGI [27]: 6.12 µM
TGI [28]: 11.5 µM
TGI [29]: 12 µM
TGI [30]: 7.15 µM
TGI [31]: 6.25 µM
TGI [32]: 14.9 µM
TGI [33]: 16.1 µM
TGI [34]: 3.59 µM
TGI [35]: 14.4 µM
TGI [36]: 8.66 µM
TGI [37]: 4.57 µM
TGI [38]: 2.92 µM
TGI [39]: 11.2 µM
TGI [40]: 16.3 µM
TGI [41]: 25 µM
TGI [42]: 7.77 µM
TGI [43]: 3.73 µM
TGI [44]: 9.29 µM
TGI [45]: 17.9 µM
TGI [46]: 3.94 µM
TGI [47]: 10.8 µM
TGI [48]: 13.1 µM
TGI [49]: 11 µM
TGI [50]: 9.12 µM
TGI [51]: 10.4 µM
TGI [52]: 17.8 µM
TGI [53]: 11.7 µM

c1ccc([P+](c2ccccc2)(c2ccccc2)c2ccc([P+](c3ccccc3)(c3ccccc3)c3ccccc3)cc2)cc1
TGI [1]: > 100 µM
TGI [3]: > 100 µM
TGI [5]: > 100 µM
TGI [54]: > 100 µM
TGI [7]: > 100 µM
TGI [8]: > 100 µM
TGI [55]: > 100 µM
TGI [10]: > 100 µM
TGI [11]: > 100 µM
TGI [12]: > 100 µM
TGI [13]: > 100 µM
TGI [14]: > 100 µM
TGI [15]: 81.5 µM
TGI [56]: > 100 µM
TGI [57]: > 100 µM
TGI [17]: > 100 µM
TGI [19]: > 100 µM
TGI [20]: > 100 µM
TGI [21]: > 100 µM
TGI [22]: > 100 µM
TGI [58]: > 100 µM
TGI [23]: > 100 µM
TGI [24]: > 100 µM
TGI [26]: > 100 µM
TGI [27]: > 100 µM
TGI [59]: > 100 µM
TGI [28]: > 100 µM
TGI [29]: > 100 µM
TGI [30]: > 100 µM
TGI [32]: > 100 µM
TGI [60]: > 100 µM
TGI [61]: > 100 µM
TGI [33]: > 100 µM
TGI [34]: > 100 µM
TGI [35]: > 100 µM
TGI [62]: > 100 µM
TGI [63]: > 100 µM
TGI [36]: > 100 µM
TGI [37]: > 100 µM
TGI [38]: 50.8 µM
TGI [39]: > 100 µM
TGI [40]: > 100 µM
TGI [41]: > 100 µM
TGI [42]: > 100 µM
TGI [46]: > 100 µM
TGI [47]: > 100 µM
TGI [64]: > 100 µM
TGI [48]: > 100 µM
TGI [65]: > 100 µM
TGI [49]: > 100 µM
TGI [50]: > 100 µM
TGI [51]: > 100 µM
TGI [52]: > 100 µM
TGI [66]: > 100 µM
TGI [53]: > 100 µM

COc1ccc(/C=C/C(=O)C(C)(C)Br)cc1
TGI [3]: 28.6 µM
TGI [5]: 63.9 µM
TGI [54]: 34.3 µM
TGI [6]: 27.9 µM
TGI [7]: 31.4 µM
TGI [8]: 3.79 µM
TGI [55]: 63.1 µM
TGI [10]: 14.6 µM
TGI [12]: 2.92 µM
TGI [13]: 37.1 µM
TGI [14]: 32 µM
TGI [15]: 32.2 µM
TGI [56]: 76.2 µM
TGI [16]: 31.7 µM
TGI [57]: 16.6 µM
TGI [17]: 48 µM
TGI [19]: 5.22 µM
TGI [20]: 27.5 µM
TGI [21]: 43.9 µM
TGI [22]: > 100 µM
TGI [58]: 19.1 µM
TGI [24]: 23.7 µM
TGI [26]: 7.69 µM
TGI [27]: 69.2 µM
TGI [59]: 36.9 µM
TGI [28]: 23.3 µM
TGI [29]: 5.76 µM
TGI [30]: 35.7 µM
TGI [32]: 25.7 µM
TGI [60]: > 100 µM
TGI [33]: 34.7 µM
TGI [34]: 63.1 µM
TGI [35]: 6.09 µM
TGI [62]: 39.4 µM
TGI [63]: 37.2 µM
TGI [36]: 28.1 µM
TGI [37]: 25.3 µM
TGI [38]: 29.5 µM
TGI [39]: 35 µM
TGI [40]: 27.1 µM
TGI [41]: 13.6 µM
TGI [42]: 6.04 µM
TGI [46]: 55.1 µM
TGI [47]: 88.7 µM
TGI [64]: 30.2 µM
TGI [48]: 5.37 µM
TGI [65]: 7.06 µM
TGI [49]: 9.83 µM
TGI [50]: 29.7 µM
TGI [51]: 11.5 µM
TGI [52]: 18.9 µM
TGI [66]: 37.8 µM
TGI [53]: 19.6 µM

Cn1c(=O)sc2cc(C(=S)N3CCOCC3)ccc21
TGI [1]: > 100 µM
TGI [3]: > 100 µM
TGI [5]: > 100 µM
TGI [54]: > 100 µM
TGI [6]: > 100 µM
TGI [7]: > 100 µM
TGI [8]: > 100 µM
TGI [9]: > 100 µM
TGI [55]: > 100 µM
TGI [10]: > 100 µM
TGI [11]: > 100 µM
TGI [12]: > 100 µM
TGI [13]: > 100 µM
TGI [14]: > 100 µM
TGI [15]: > 100 µM
TGI [56]: > 100 µM
TGI [16]: > 100 µM
TGI [57]: > 100 µM
TGI [17]: > 100 µM
TGI [19]: > 100 µM
TGI [20]: > 100 µM
TGI [21]: > 100 µM
TGI [22]: > 100 µM
TGI [58]: > 100 µM
TGI [23]: > 100 µM
TGI [24]: > 100 µM
TGI [26]: > 100 µM
TGI [27]: > 100 µM
TGI [59]: > 100 µM
TGI [28]: > 100 µM
TGI [67]: > 100 µM
TGI [29]: > 100 µM
TGI [30]: > 100 µM
TGI [32]: > 100 µM
TGI [60]: > 100 µM
TGI [61]: > 95.3 µM
TGI [33]: > 100 µM
TGI [34]: > 100 µM
TGI [35]: > 100 µM
TGI [62]: > 100 µM
TGI [63]: > 100 µM
TGI [36]: > 100 µM
TGI [37]: > 100 µM
TGI [38]: > 100 µM
TGI [39]: > 100 µM
TGI [40]: > 100 µM
TGI [41]: > 100 µM
TGI [42]: > 100 µM
TGI [46]: > 100 µM
TGI [47]: > 100 µM
TGI [64]: > 100 µM
TGI [48]: > 100 µM
TGI [65]: > 100 µM
TGI [49]: > 100 µM
TGI [50]: > 100 µM
TGI [51]: > 100 µM
TGI [52]: > 100 µM
TGI [66]: > 100 µM
TGI [53]: > 100 µM
